# Laboratory results: US6593084B2, “Carcinogen assay” (priority 1998, dated 2003)
# Tests used:
# mouse liver = experiment: Differential gene expression in livers of DMBA treated mice, Atlas membranes; details: liver of DMBA treated animal vs control animal
# mice = details: cited from earlier work
# Salmonella = details: cited from earlier work
# mammalian cells = mammalian cells in vitro; cited from earlier work
# [1] = test system: primary mouse keratinocytes; experiment: Differential display and Northern blot hybridization of mRNAs in treated primary mouse keratinocytes; assay type: cell-based; details: 24 hours treatment
# Procedure: Cultures of newborn mouse keratinocytes were established essentially as described by H. Hennings (In Keratinocyte Methods, Cambridge University Press (1994), pages 21-23). Briefly, mice two to three days postpartum were sacrificed by metaphane narcosis, rinsed in 70% ethanol, and kept on ice. Skins were peeled off, stretched out and floated (with epidermis facing upward) on the surface of a 0.25% trypsin solution in Ca^+2, Mg^+2 free PBS overnight at 4° C. Skins were transferred to a sterile surface, the epidermis was separated from dermis, the epidermis was minced, and the mixture stirred in serum-free keratinocyte growth medium (KGM, Clonetics). This cell suspension was filtered through nylon gauze, cells were centrifuged (2,000 rpm for 5 min), resuspended in KGM with 20 μM Ca^+2 (20 KGM), and then the cells were counted and plated (approximately 2×10^6 per 10 cm plate coated with mouse collagen type IV in 20 KGM) and the cell cultures were incubated at 37° C. with a 7% CO2. After 16-24 hours, cells were washed in Ca^+2, Mg^+2 free phosphate buffered saline (PBS), and cultivated on 20 KGM, with the cell culture medium changed (that is, old medium discarded and fresh medium provided) each other day. For induction of terminal differentiation, medium was changed, usually on the sixth day of cultivation of the keratinocytes, to KGM containing 1.2 mM Ca^+2, and the keratinocytes were cultivated for 24 hours before RNA isolation.
# For phorbol-myristate acetate (TPA) treatment, keratinocyte cultures were fed with 20 KGM containing 0.1 μg/ml of 12-O-tetradecanoyil-13-phorbol-acetate for 24 hours, before isolation of RNA.
# Total RNA was isolated by acid phenol procedure using TRI Reagent™ (Molecular Research Center, Inc.) and according to manufacturer's instructions from (1) terminally differentiated keratinocytes, cultivated in KGM medium containing 1.2 mM Ca^+2 for 24 hours; (2) TPA-treated keratinocytes, cultivated in KGM containing 20 μM Ca^+2 and 0.1 μg/ml TPA for 24 hours; and (3) control keratinocyte cultures fed 24 hours before RNA isolation with 20 KGM containing, in some experiments, 0.05% DMSO (dimethyl sulphoxide).
# Differential display of total RNAs from keratinocyte cultures (1), (2), and (3) was performed with Delta-RNA Fingerprinting Kit™ (Clontech) according to the manufacturer's instructions. Briefly, cDNAs were synthesized from total RNAs using Murine Moloney Leukemia Virus (MMLV) reverse transcriptase. Two dilutions of cDNA were prepared (diluted 10-fold and 40-fold). Each total RNA sample was used to synthesize cDNA that was amplified using polymerase chain reaction (PCR) methodology using P & T primers in presence of [α-^33P] dATP. […] The appearance of a band from a sample that was not present in the control lane indicated overexpression and the disappearance or reduction in intensity of a band indicated suppression of synthesis. The candidate bands were cut from the sequencing gel and reamplified using the original primer pairs. Following electrophoresis on agarose gels, reamplified DNA fragments were cut out and purified using a QIAEX II gel extraction kit™ (QIAGEN). The DNAs were labeled and used to confirm the differential expression by hybridization with Northern blots of Poly (A)^+ containing RNA isolated from total RNAs (1), (2), and (3). Equal quantities of these RNAs were electrophoresed on agarose gels and blotted to nitrocellulose filters. Equal loading of RNA was confirmed by hybridization with a β-actin probe, whose mRNA was assumed to be present in approximately equal amounts in all of the preparations. The blots were stripped of radiolabel and then used to confirm the differential synthesis of a fragment. Upon confirmation, the fragment was cloned into pCRII using the TA cloning kit™ (Introvitrogen). Cloned DNA fragments were sequenced with SequiTerm Excel II kit™ (Epicentre Technology).
compound,measurement,setting,value
"Cc1c2ccccc2c(C)c2c1ccc1ccccc12 [DMBA, 7, 12-dimethyl benz[α] anthracene]",differential pattern of gene expression in liver,mouse liver,differential expression was observed
c1ccoc1 [Furan],induction of hepatocellular carcinomas,mice,induce hepatocellular carcinomas
same,Salmonella mutagenicity test,Salmonella,negative
same,chromosomal aberrations,mammalian cells,induces
same,gene mutations,mammalian cells,induces
same,sister chromatide exchanges,mammalian cells,induces
"ClC=C(Cl)Cl [TCE, trichloroethylene]",induction of hepatocellular carcinomas,mice,induce hepatocellular carcinomas
same,Salmonella mutagenicity test,Salmonella,negative
"CCCCCCCCCCCCCC(=O)O[C@@H]1[C@@H](C)[C@@]2(O)[C@@H](C=C(CO)C[C@]3(O)C(=O)C(C)=C[C@@H]23)[C@@H]2C(C)(C)[C@]12OC(C)=O [TPA, 12-O-tetradecanoyil-13-phorbol-acetate]",Changes in Expression (Comparative to Untreated cells),"[1]; gene fragment 2552/4, 5.5 kb RNA",Suppressed in TPA-
same,Changes in Expression (Comparative to Untreated cells),"[1]; gene fragment 2672/1, Mouse ESTs AA492919, AA607761",Suppressed in TPA-
same,Changes in Expression (Comparative to Untreated cells),"[1]; gene fragment 4314, AA109991, AA561914, AA067670, AA864127",Overexpressed in
same,Changes in Expression (Comparative to Untreated cells),"[1]; gene fragment 19102/3, Mouse ESTs AA038613, W14382",Suppressed in TPA-
same,Changes in Expression (Comparative to Untreated cells),"[1]; gene fragment 31774/6/8, 6 kb RNA, Mouse ESTs AA423711, W82493",Suppressed in TPA-
same,Changes in Expression (Comparative to Untreated cells),"[1]; gene fragment 31777, Mouse EST AA073833",Overexpressed in
same,Changes in Expression (Comparative to Untreated cells),"[1]; gene fragment 83442, Mouse Connexin 26",Overexpressed in
same,Changes in Expression (Comparative to Untreated cells),"[1]; gene fragment 110176/4, homologous to Mouse Cytokeratin Endo A",Suppressed in TPA-
same,Changes in Expression (Comparative to Untreated cells),"[1]; gene fragment 3177715, Mouse ESTs AA423711, AA637015",Suppressed in TPA-
